Tests used:
Test in all cases: relative viability (nuclei count vs DMSO), 5 days (fraction); higher = more cells survive
Tozasertib + Bortezomib = compound: Cc1cc(Nc2cc(N3CCN(C)CC3)nc(Sc3ccc(NC(=O)C4CC4)cc3)n2)n[nH]1 [Tozasertib] + CC(C)C[C@H](NC(=O)[C@H](Cc1ccccc1)NC(=O)c1cnccn1)B(O)O [Bortezomib] (partner 0.002 µM)
How it was run: (§1)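 The day after seeding in 1536-well plates, lung cancer cell lines were treated by pin tool with a single drug, or with a fixed anchor-drug dose together with five library-drug doses (not always all listed) in √10 steps. After 5 days, a combined fix-and-stain solution (final 0.05% Triton X-100, 1% formaldehyde, 1 ug/ml Hoechst) was added. Nuclei counted on 4× images gave relative viability as treated counts over vehicle counts, reported as the median of duplicate plates.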

Tozasertib + Trametinib = compound: Cc1cc(Nc2cc(N3CCN(C)CC3)nc(Sc3ccc(NC(=O)C4CC4)cc3)n2)n[nH]1 [Tozasertib] + CC(=O)Nc1cccc(-n2c(=O)n(C3CC3)c(=O)c3c(Nc4ccc(I)cc4F)n(C)c(=O)c(C)c32)c1 [Trametinib] (partner 0.02 µM)
How it was run: as §1

Tozasertib + Dasatinib = compound: Cc1cc(Nc2cc(N3CCN(C)CC3)nc(Sc3ccc(NC(=O)C4CC4)cc3)n2)n[nH]1 [Tozasertib] + Cc1nc(Nc2ncc(C(=O)Nc3c(C)cccc3Cl)s2)cc(N2CCN(CCO)CC2)n1 [Dasatinib] (partner 0.075 µM)
How it was run: as §1

Tozasertib + AZD7762 = compound: Cc1cc(Nc2cc(N3CCN(C)CC3)nc(Sc3ccc(NC(=O)C4CC4)cc3)n2)n[nH]1 [Tozasertib] + NC(=O)Nc1cc(-c2cccc(F)c2)sc1C(=O)N[C@H]1CCCNC1 [AZD7762] (partner 0.2 µM)
How it was run: as §1

Tozasertib + Olaparib = compound: Cc1cc(Nc2cc(N3CCN(C)CC3)nc(Sc3ccc(NC(=O)C4CC4)cc3)n2)n[nH]1 [Tozasertib] + O=C(c1cc(Cc2n[nH]c(=O)c3ccccc23)ccc1F)N1CCN(C(=O)C2CC2)CC1 [Olaparib] (partner 8 µM)
How it was run: as §1

| Cell Line | relative viability (Tozasertib + Bortezomib; first compound 0.004 µM) | relative viability (Tozasertib + Bortezomib; first compound 0.01265 µM) | relative viability (Tozasertib + Bortezomib; first compound 0.04 µM) | relative viability (Tozasertib + Bortezomib; first compound 0.1265 µM) | relative viability (Tozasertib + Trametinib; first compound 0.004 µM) | relative viability (Tozasertib + Trametinib; first compound 0.01265 µM) | relative viability (Tozasertib + Trametinib; first compound 0.04 µM) | relative viability (Tozasertib + Trametinib; first compound 0.1265 µM) | relative viability (Tozasertib + Dasatinib; first compound 0.004 µM) | relative viability (Tozasertib + Dasatinib; first compound 0.01265 µM) | relative viability (Tozasertib + Dasatinib; first compound 0.04 µM) | relative viability (Tozasertib + Dasatinib; first compound 0.1265 µM) | relative viability (Tozasertib + AZD7762; first compound 0.004 µM) | relative viability (Tozasertib + AZD7762; first compound 0.01265 µM) | relative viability (Tozasertib + AZD7762; first compound 0.04 µM) | relative viability (Tozasertib + AZD7762; first compound 0.1265 µM) | relative viability (Tozasertib + Olaparib; first compound 0.004 µM) | relative viability (Tozasertib + Olaparib; first compound 0.01265 µM) | relative viability (Tozasertib + Olaparib; first compound 0.04 µM) | relative viability (Tozasertib + Olaparib; first compound 0.1265 µM) |
| --- | --- | --- | --- | --- | --- | --- | --- | --- | --- | --- | --- | --- | --- | --- | --- | --- | --- | --- | --- | --- |
| NCI-H2087 | 0.83 | 0.787 | 0.78 | 0.723 | 0.185 | 0.187 | 0.218 | 0.126 | 0.82 | 0.858 | 1.12 | 0.63 | 1.13 | 1.24 | 1.33 | 1.01 | 0.595 | 0.645 | 0.609 | 0.456 |
| HARA | 1.18 | 1 | 1.01 | 0.664 | 0.63 | 0.565 | 0.608 | 0.283 | 0.286 | 0.281 | 0.336 | 0.303 | 0.353 | 0.247 | 0.209 | 0.123 | 0.821 | 1.2 | 0.983 | 0.349 |
| NCI-H1734 | 0.833 | 0.998 | 1.07 | 0.464 |  | 0.793 | 0.678 | 0.403 | 0.422 | 0.444 | 0.452 | 0.314 | 0.506 | 0.559 | 0.532 | 0.228 | 0.734 | 0.577 | 0.66 | 0.374 |
| NCI-H596 | 1.06 | 1.1 | 1.06 | 0.796 | 0.992 | 0.877 | 0.826 | 0.622 | 0.555 | 0.589 | 0.645 | 0.53 |  |  | 1.2 | 0.871 | 0.605 | 0.769 | 0.732 | 0.525 |
| BEN | 1.01 | 0.79 | 0.925 | 0.571 | 1.03 | 1.02 |  | 0.961 | 0.372 | 0.354 | 0.363 | 0.287 | 0.761 | 0.678 |  | 0.532 |  | 1.09 | 0.931 | 0.956 |
| HCC-78 | 0.504 |  |  | 0.497 | 0.821 | 0.478 | 0.824 | 0.632 | 0.541 | 0.316 | 0.469 | 0.322 | 0.806 | 0.519 | 0.668 | 0.477 | 0.885 | 0.705 | 0.98 | 0.758 |
| EKVX | 1.19 | 0.993 |  | 1.05 | 0.369 | 0.301 | 0.339 | 0.422 | 0.494 | 0.606 | 0.471 |  | 0.703 | 0.584 | 0.572 | 0.236 | 0.93 | 0.773 | 0.798 | 0.688 |
| PC-14 | 0.861 | 0.9 | 1.03 | 0.896 |  | 0.767 | 0.994 | 0.595 |  | 0.292 | 0.254 | 0.132 | 0.31 | 0.236 | 0.336 | 0.213 |  | 0.208 | 0.256 | 0.224 |

Reference: the supplement of paper PMC10307832
